Measured values: paper PMC12737277, “Ecotoxicity of Nitrated Monoaromatic Hydrocarbons in Aquatic Systems: Emerging Risks from Atmospheric Deposition of Biomass Burning and Anthropogenic Aerosols” (Toxics, 2025)
Where two headings read alike, the source gives them in different places.

How the values were obtained:
Oct1 = molecular target: T1, Oct1 (Danio rerio, UniProt A0A8N1Z2B5); assay: inhibition of ASP+ uptake in transfected cells, fluorescence; assay type: cell-based; conditions: 0.5 µM ASP+, mock cells subtracted
T1 construct: gene slc22a2; full-length transporter stably expressed in Flp-In-293 cells (Flp-In-293-drOct1)
T1 sequence (A0A8N1Z2B5 1-562): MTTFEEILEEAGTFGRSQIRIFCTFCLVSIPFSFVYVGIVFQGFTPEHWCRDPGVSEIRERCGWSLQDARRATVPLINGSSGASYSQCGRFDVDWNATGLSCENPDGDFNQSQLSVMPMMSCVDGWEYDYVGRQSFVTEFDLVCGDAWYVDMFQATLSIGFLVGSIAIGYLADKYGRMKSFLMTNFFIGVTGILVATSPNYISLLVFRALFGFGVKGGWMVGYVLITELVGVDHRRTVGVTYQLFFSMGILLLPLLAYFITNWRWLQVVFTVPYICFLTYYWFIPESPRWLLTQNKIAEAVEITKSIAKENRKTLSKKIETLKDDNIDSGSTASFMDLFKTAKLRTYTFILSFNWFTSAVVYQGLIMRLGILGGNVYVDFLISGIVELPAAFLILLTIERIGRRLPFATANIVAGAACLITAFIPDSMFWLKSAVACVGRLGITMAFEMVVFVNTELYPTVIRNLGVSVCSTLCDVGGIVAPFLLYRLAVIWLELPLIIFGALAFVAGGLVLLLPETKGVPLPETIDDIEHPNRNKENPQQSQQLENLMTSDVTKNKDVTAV

Oatp1d1 = molecular target: T2, Oatp1d1 (Danio rerio, UniProt A0A8M9PU70); assay: inhibition of Lucifer yellow uptake in transfected cells, fluorescence; assay type: cell-based
T2 construct: gene slco1d1; full-length transporter stably expressed in Flp-In-293 cells (Flp-In-293-drOatp1d1)
T2 sequence (A0A8M9PU70 1-689): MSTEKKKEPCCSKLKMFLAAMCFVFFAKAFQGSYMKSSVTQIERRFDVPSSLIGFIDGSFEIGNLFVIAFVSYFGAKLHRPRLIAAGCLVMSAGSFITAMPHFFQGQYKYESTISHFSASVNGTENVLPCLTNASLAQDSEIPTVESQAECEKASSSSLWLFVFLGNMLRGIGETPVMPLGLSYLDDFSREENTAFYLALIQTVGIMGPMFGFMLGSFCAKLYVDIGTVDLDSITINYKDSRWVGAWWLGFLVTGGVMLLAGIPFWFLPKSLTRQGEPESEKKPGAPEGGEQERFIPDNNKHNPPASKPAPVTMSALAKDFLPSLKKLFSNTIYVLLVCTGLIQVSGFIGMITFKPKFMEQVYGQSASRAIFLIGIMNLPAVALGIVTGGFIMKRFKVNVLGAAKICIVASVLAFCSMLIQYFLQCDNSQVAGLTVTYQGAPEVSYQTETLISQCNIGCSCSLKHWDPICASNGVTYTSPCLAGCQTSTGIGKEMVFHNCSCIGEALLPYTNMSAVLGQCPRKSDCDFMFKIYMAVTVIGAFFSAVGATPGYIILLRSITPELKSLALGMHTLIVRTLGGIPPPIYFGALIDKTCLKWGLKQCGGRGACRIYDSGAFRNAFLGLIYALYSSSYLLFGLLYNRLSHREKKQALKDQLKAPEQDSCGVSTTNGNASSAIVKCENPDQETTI

[1] = 50 µM Lucifer yellow, mock cells subtracted

Row | SMILES | IC50 (Oct1) | IC50 (Oatp1d1; [1]) | IC50 (Oct1; read-out: IC50 (converted)) [µM] | IC50 (Oatp1d1; read-out: IC50 (converted)) [µM]
1 | O=[N+]([O-])c1ccc(O)c(O)c1 [4NC] | particularly 3M5NC, 3M4NC, and 4NC, exhibited the strongest interactions with Oct1 | all compounds except 4NP showed interaction with LY uptake | – | –
2 | COc1cc([N+](=O)[O-])cc(OC)c1O [4NS] | All tested NMAHs interfered with ASP+ uptake via Oct1 | all compounds except 4NP showed interaction with LY uptake | – | –
3 | O=C(O)c1cc([N+](=O)[O-])ccc1O [5NSA] | – | – | 529 | 14.2
4 | Cc1cc([N+](=O)[O-])cc(O)c1O [3M5NC] | particularly 3M5NC, 3M4NC, and 4NC, exhibited the strongest interactions with Oct1 | all compounds except 4NP showed interaction with LY uptake | – | –
5 | O=C(O)c1cccc([N+](=O)[O-])c1O [3NSA] | – | all compounds except 4NP showed interaction with LY uptake | 496 | –
6 | O=[N+]([O-])c1ccc(O)cc1 [4NP] | – | – | – | > 719
7 | Cc1c([N+](=O)[O-])ccc(O)c1O [3M4NC] | particularly 3M5NC, 3M4NC, and 4NC, exhibited the strongest interactions with Oct1 | all compounds except 4NP showed interaction with LY uptake | – | –
